# In ChEMBL document CHEMBL1201862, “PubChem BioAssay data set” (2004):
#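 Dose response: 5 concentrations. Exposure: 48 h. Format: 96-well plates. Endpoint: linear interpolation; highest concentration if not reached. GI50: concentration for 50% inhibition of growth.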 Calls of active or inactive are those of the source. Cut-off read from the data, not from the text of the source: active = GI50 up to about 1.1 µM and inactive = higher.
# Key:
# Experiment in all cases: NCI anticancer screen, dose series, 48 h
# NCI/ADR-RES = system: NCI/ADR-RES
# HCC 2998 = system: HCC 2998
# OVCAR-4 = system: OVCAR-4
# MDA-MB-435 = system: MDA-MB-435
# COLO 205 = system: COLO 205
# A549 = system: A549
# SF-539 = system: SF-539
# BT-549 = system: BT-549
# PC-3 = system: PC-3
# Malme-3M = system: Malme-3M
# MDA-MB-231 = system: MDA-MB-231
# SK-MEL-5 = system: SK-MEL-5
# RPMI-8226 = system: RPMI-8226
# HL-60 = system: HL-60
# UACC-257 = system: UACC-257
# SK-OV-3 = system: SK-OV-3
# SNB-75 = system: SNB-75
# OVCAR-8 = system: OVCAR-8
# CAKI-1 = system: CAKI-1
# NCI-H522 = system: NCI-H522
# HT-29 = system: HT-29
# NCI-H23 = system: NCI-H23
# HCT-15 = system: HCT-15
# NCI-H460 = system: NCI-H460
# HOP-62 = system: HOP-62
# UACC-62 = system: UACC-62
# MCF7 = system: MCF7
# MDA-N = system: MDA-N
# MOLT-4 = system: MOLT-4
# 786-0 = system: 786-0
# SW-620 = system: SW-620
# T47D = system: T47D
# NCI-H226 = system: NCI-H226
# DU-145 = system: DU-145
# IGROV-1 = system: IGROV-1
# HOP-92 = system: HOP-92
# SF-268 = system: SF-268
# ACHN = system: ACHN
# SNB-19 = system: SNB-19
# UO-31 = system: UO-31
# RXF 393 = system: RXF 393
# HCT-116 = system: HCT-116
# EKVX = system: EKVX
# TK-10 = system: TK-10
# SN12C = system: SN12C
# Hs-578T = system: Hs-578T
# M14 = system: M14
# LOX IMVI = system: LOX IMVI
# SF-295 = system: SF-295
# SR = system: SR
# SK-MEL-28 = system: SK-MEL-28
# CCRF-CEM = system: CCRF-CEM
# K562 = system: K562
# KM12 = system: KM12
# U-251 = system: U-251
# OVCAR-3 = system: OVCAR-3
# OVCAR-5 = system: OVCAR-5
# SK-MEL-2 = system: SK-MEL-2
smiles,measurement,setting,value
N#Cc1ccc(-c2nc(C#N)c(N)o2)cc1,GI50,NCI/ADR-RES,> 10 µM (inactive)
same,GI50,HCC 2998,> 10 µM (inactive)
same,GI50,OVCAR-4,> 10 µM (inactive)
same,GI50,MDA-MB-435,> 10 µM (inactive)
same,GI50,COLO 205,> 10 µM (inactive)
same,GI50,A549,> 10 µM (inactive)
same,GI50,SF-539,> 10 µM (inactive)
same,GI50,BT-549,> 10 µM (inactive)
same,GI50,PC-3,> 10 µM (inactive)
same,GI50,Malme-3M,> 10 µM (inactive)
same,GI50,MDA-MB-231,> 10 µM (inactive)
same,GI50,SK-MEL-5,> 10 µM (inactive)
same,GI50,RPMI-8226,> 10 µM (inactive)
same,GI50,HL-60,> 10 µM (inactive)
same,GI50,UACC-257,> 10 µM (inactive)
same,GI50,SK-OV-3,> 10 µM (inactive)
same,GI50,SNB-75,> 10 µM (inactive)
same,GI50,OVCAR-8,> 10 µM (inactive)
same,GI50,CAKI-1,> 10 µM (inactive)
same,GI50,NCI-H522,> 10 µM (inactive)
same,GI50,HT-29,> 10 µM (inactive)
same,GI50,NCI-H23,> 10 µM (inactive)
same,GI50,HCT-15,> 10 µM
same,GI50,NCI-H460,> 10 µM (inactive)
same,GI50,HOP-62,> 10 µM (inactive)
same,GI50,UACC-62,> 10 µM (inactive)
same,GI50,MCF7,> 10 µM (inactive)
same,GI50,MDA-N,> 10 µM (inactive)
same,GI50,MOLT-4,> 10 µM (inactive)
same,GI50,786-0,> 10 µM (inactive)
same,GI50,SW-620,> 10 µM (inactive)
same,GI50,T47D,> 10 µM (inactive)
same,GI50,NCI-H226,> 10 µM (inactive)
same,GI50,DU-145,> 10 µM (inactive)
same,GI50,IGROV-1,> 10 µM (inactive)
same,GI50,HOP-92,> 10 µM (inactive)
same,GI50,SF-268,> 10 µM (inactive)
same,GI50,ACHN,> 10 µM (inactive)
same,GI50,SNB-19,> 10 µM (inactive)
same,GI50,UO-31,> 10 µM (inactive)
same,GI50,RXF 393,> 10 µM (inactive)
same,GI50,HCT-116,> 10 µM (inactive)
same,GI50,EKVX,> 10 µM (inactive)
same,GI50,TK-10,> 10 µM (inactive)
same,GI50,SN12C,> 10 µM (inactive)
same,GI50,Hs-578T,> 10 µM (inactive)
same,GI50,M14,> 10 µM (inactive)
same,GI50,LOX IMVI,> 10 µM (inactive)
same,GI50,SF-295,> 10 µM (inactive)
same,GI50,SR,> 10 µM (inactive)
same,GI50,SK-MEL-28,> 10 µM (inactive)
same,GI50,CCRF-CEM,> 10 µM (inactive)
same,GI50,K562,> 10 µM (inactive)
same,GI50,KM12,> 10 µM (inactive)
CC1=CC(C)C(O)C(C)/C=C\C(O)C/C=C(/C)C(=O)CC(O)C(C)\C=C/C=C\C=C/C(=O)NC2=C(O)C(=O)c3c(cc(C)c(O)c3C1=O)C2=O (configuration not stated),GI50,NCI/ADR-RES,> 100 µM (inactive)
same,GI50,HCC 2998,86.1 µM (inactive)
same,GI50,OVCAR-4,> 100 µM (inactive)
same,GI50,MDA-MB-435,> 100 µM (inactive)
same,GI50,COLO 205,> 100 µM (inactive)
same,GI50,A549,> 100 µM (inactive)
same,GI50,SF-539,62.1 µM (inactive)
same,GI50,BT-549,> 100 µM (inactive)
same,GI50,PC-3,> 100 µM (inactive)
same,GI50,MDA-MB-231,> 100 µM (inactive)
same,GI50,SK-MEL-5,91 µM (inactive)
same,GI50,RPMI-8226,> 100 µM (inactive)
same,GI50,HL-60,> 100 µM (inactive)
same,GI50,UACC-257,> 100 µM (inactive)
same,GI50,SNB-75,25 µM (inactive)
same,GI50,OVCAR-8,> 100 µM (inactive)
same,GI50,CAKI-1,> 100 µM (inactive)
same,GI50,NCI-H522,> 100 µM (inactive)
same,GI50,HT-29,56.4 µM (inactive)
same,GI50,NCI-H23,> 100 µM (inactive)
same,GI50,HCT-15,> 100 µM
same,GI50,NCI-H460,> 100 µM (inactive)
same,GI50,HOP-62,> 100 µM (inactive)
same,GI50,UACC-62,97.7 µM (inactive)
same,GI50,MCF7,25.8 µM (inactive)
same,GI50,MDA-N,> 100 µM (inactive)
same,GI50,MOLT-4,71.1 µM (inactive)
same,GI50,786-0,> 100 µM (inactive)
same,GI50,SW-620,> 100 µM (inactive)
same,GI50,T47D,> 100 µM (inactive)
same,GI50,DU-145,76.6 µM (inactive)
same,GI50,IGROV-1,74.8 µM (inactive)
same,GI50,HOP-92,> 100 µM (inactive)
same,GI50,SF-268,94.4 µM (inactive)
same,GI50,ACHN,> 100 µM (inactive)
same,GI50,U-251,> 100 µM (inactive)
same,GI50,SNB-19,> 100 µM (inactive)
same,GI50,OVCAR-3,> 100 µM (inactive)
same,GI50,UO-31,> 100 µM (inactive)
same,GI50,OVCAR-5,> 100 µM (inactive)
same,GI50,HCT-116,58.1 µM (inactive)
same,GI50,EKVX,> 100 µM (inactive)
same,GI50,TK-10,> 100 µM (inactive)
same,GI50,SN12C,> 100 µM (inactive)
same,GI50,SK-MEL-2,> 100 µM (inactive)
same,GI50,Hs-578T,46 µM (inactive)
same,GI50,M14,> 100 µM (inactive)
same,GI50,LOX IMVI,> 100 µM (inactive)
same,GI50,SF-295,> 100 µM (inactive)
same,GI50,SR,31.9 µM (inactive)
same,GI50,SK-MEL-28,> 100 µM (inactive)
same,GI50,CCRF-CEM,69.2 µM (inactive)
same,GI50,KM12,56.2 µM (inactive)
